BindingDB's records for doi:10.3109/14756366.2011.621122 (Ondokuz Mayis University, 2012)

What was measured:
Experiment in all cases: CA Activity Assay
Conditions in all cases: pH 7.4
Carbonic anhydrase 3 = molecular target: T1, Carbonic anhydrase 3 (Bos taurus, UniProt Q3SZX4)
T1 sequence (Q3SZX4 whole entry): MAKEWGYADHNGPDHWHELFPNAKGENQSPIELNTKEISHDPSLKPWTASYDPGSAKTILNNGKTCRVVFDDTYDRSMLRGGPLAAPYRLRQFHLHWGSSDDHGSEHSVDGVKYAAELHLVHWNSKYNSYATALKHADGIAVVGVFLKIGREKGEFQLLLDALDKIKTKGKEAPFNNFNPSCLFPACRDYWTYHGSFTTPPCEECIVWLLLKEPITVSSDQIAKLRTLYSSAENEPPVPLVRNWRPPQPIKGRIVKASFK

Carbonic anhydrase 2 = Carbonic anhydrase 2 (Homo sapiens, UniProt P00918)
Carbonic anhydrase 6 = Carbonic anhydrase 6 (Homo sapiens, UniProt P23280)
Sequence of Carbonic anhydrase 6 (P23280 whole entry): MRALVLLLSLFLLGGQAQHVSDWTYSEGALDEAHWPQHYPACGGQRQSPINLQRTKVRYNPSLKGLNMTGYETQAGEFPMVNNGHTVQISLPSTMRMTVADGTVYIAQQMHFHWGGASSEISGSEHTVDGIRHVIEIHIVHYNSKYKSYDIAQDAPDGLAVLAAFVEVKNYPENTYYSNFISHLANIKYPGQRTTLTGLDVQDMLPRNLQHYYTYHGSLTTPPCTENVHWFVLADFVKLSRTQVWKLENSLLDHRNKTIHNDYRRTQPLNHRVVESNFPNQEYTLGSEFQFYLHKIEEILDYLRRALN

Carbonic anhydrase 1 = Carbonic anhydrase 1 (Homo sapiens, UniProt P00915)
Sequence of Carbonic anhydrase 1 (P00915 whole entry): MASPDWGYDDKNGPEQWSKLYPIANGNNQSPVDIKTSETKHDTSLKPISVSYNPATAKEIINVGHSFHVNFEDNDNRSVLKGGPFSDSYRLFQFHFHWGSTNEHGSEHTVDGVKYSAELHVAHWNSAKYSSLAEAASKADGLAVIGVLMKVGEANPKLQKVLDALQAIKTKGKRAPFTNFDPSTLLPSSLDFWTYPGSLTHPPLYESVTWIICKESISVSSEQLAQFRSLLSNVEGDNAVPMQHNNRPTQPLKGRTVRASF

Row | SMILES | IC50 (Carbonic anhydrase 3) [µM] | Ki (Carbonic anhydrase 3) [µM] | Ki (Carbonic anhydrase 2) [µM] | Ki (Carbonic anhydrase 6) [µM] | Ki (Carbonic anhydrase 1) [µM]
1 | Oc1ccccc1 | 4.63 |  |  |  | 
2 | c1ccc(-c2cc(OCCCN3CCCC3)nc(-c3ccccc3)n2)cc1 | 66.7 |  |  |  | 
3 | Oc1ccccc1O [1,2-Dihydroxybenzene, XI] | 5.79 |  |  |  | 
4 | O[C@@H]1CCCC[C@H]1O [(1R,2R)-trans-1,2-cyclohexanediol] |  | 4.28 |  |  | 
5 | Cc1ccc(S(=O)(=O)Nc2ccccc2)cc1 [CA inhibitor, 2] |  | 13.1 | 14.3 | 13.5 | 210
6 | Cc1ccc(NS(=O)(=O)c2ccc(C)cc2)cc1 [Carbonic anhydrase inhibitors (CAIs), 1] |  | 2.43 | 1.03 | 24.3 | 50.1
7 | Cc1ccc(S(=O)(=O)N[C@@H]2C=CCC[C@@H]2O)cc1 [Carbonic anhydrase inhibitors (CAIs), 3] |  | 2.67 | 3.72 | 4.48 | 70.2
8 | Cc1ccc(S(=O)(=O)N2[C@@H]3C=CCC[C@@H]3OC2(C)C)cc1 [Carbonic anhydrase inhibitors (CAIs), 4] |  | 57.4 | 21.7 | 275 | 379
9 | Cc1ccc(S(=O)(=O)N[C@@H]2[C@@H](O)[C@@H](O)CC[C@@H]2O)cc1 [Carbonic anhydrase inhibitors (CAIs), 5] |  | 0.59 | 0.47 | 1.12 | 5.48
10 | Cc1ccc(S(=O)(=O)N[C@@H]2[C@@H](O)[C@H](O)CC[C@@H]2O)cc1 [Carbonic anhydrase inhibitors (CAIs), 6] |  | 1.75 | 0.82 | 3.78 | 9.34
11 | O[C@@H]1CCCC[C@@H]1O [Carbonic anhydrase inhibitors (CAIs), 7] |  | 1.19 | 1.84 | 16.7 | 21.7
12 | Nc1ccc(S(=O)(=O)Nc2ccccn2)cc1 [MLS000069725] |  | 93.2 | 0.348 | 11.7 | 26.2
